{
  "source": "paper PMC5142287",
  "about": "“Weight control interventions improve therapeutic efficacy of dacarbazine in melanoma by reversing obesity-induced drug resistance” (Cancer & Metabolism, 2016)",
  "key": {"B16F10 melanoma [1]": {"test_system": "B16F10 melanoma", "experiment": "B16F10 melanoma isograft in HFD (obese) C57BL/6J mice: tumor growth and survival", "format": "in vivo", "description": "To study the impact of diet-induced obesity on the outcome of DTIC therapy in melanoma, we treated B16F10 melanoma isografted obese mice with DTIC purchased from Sigma, USA (80 mg/kg intraperitoneally for five consecutive days as described previously). In addition, to look into the impact of weight loss interventions on the outcome of DTIC therapy in obese mice, mice were administered with orlistat (an antiobesity drug known to inhibit gastrointestinal lipases) and/or shifted from high fat to normal diet followed by DTIC treatment. The detailed experimental plan is illustrated in Fig. 1a. Briefly, obese mice were administered orally with orlistat (10 mg/kg on every alternate day) purchased from Enzo Life Sciences, NY, USA, and/or shifted from high fat diet to normal diet. HFD C57BL/6J mice treated with vehicle or orlistat were termed as HFD-HFD Ctrl and HFD-HFD Orli (N = 11 per each group), respectively, whereas HFD C57BL/6J mice shifted to normal diet and treated with vehicle or orlistat were grouped as HFD-ND Ctrl and HFD-ND Orli (N = 11 per each group), respectively. After 15 days, these mice were injected subcutaneously (s.c.) with B16F10 cells (2 × 10^5) in 100 μl of PBS and monitored daily for the presence of palpable tumors and dimensions were recorded on alternate days. […] Tumor volume was calculated using the formula 0.52 × length × width^2 and was followed up throughout the study."}, "B16F10 cells [2]": {"test_system": "B16F10 cells", "experiment": "Long-term survival assay, B16F10 cells in serum from experimental mice", "format": "cell-based, Murine", "description": "After 24 h, DMEM containing 5% serum collected from experimental C57BL/6J mice (as illustrated in Fig. 1) was added and cells were cultured chronically for 10 days."}, "B16F1 cells": {"test_system": "B16F1 cells", "experiment": "Long-term survival assay, B16F1 cells in serum from experimental mice", "format": "cell-based, Murine", "source_text": "Additional file 1: Table S1. Composition of diets used in the study. Normal diet (ND) was procured from Amrut Laboratory Animal Feed, Pune, India, and high fat diet (HFD) was purchased from Provimi Animal Nutrition Pvt. Ltd., Bangalore, India. *, HFD was also supplemented with 400 g groundnut and 200 g dried coconut per kg body weight of mice. […] Obesity-associated parameters in the experimental ND mice recorded at the end of the experiment. ND male C57BL/6J mice were divided into two major groups. One group was orally treated with orlistat every alternate day before inoculating with B16F10 cells. The second group was orally given vehicle control on every alternate day for 8 weeks. Mice from both the groups (N = 11 per each group) were injected (s.c.) with B16F10 cells (2 × 10^5 cells/mouse in 100 μl PBS). Their body weight was monitored weekly throughout the study, and serum was collected at the end of the experiment. Blood glucose, serum TG, serum cholesterol, serum-free fatty acids, and serum LDLc were measured. Serum factors including leptin, adiponectin, insulin, resistin, IL-6, and TNF-α were estimated by ELISA. […] Effect of obesity-associated serum factors on the protein level of P-gp, Cav-1, and FASN in B16F1 cells. […] The data were recorded using Zeiss LSM510 META Confocal Microscope. […] Data were acquired on FACS Calibur and analyzed using BD CellQuest Pro software. […]"}, "B16F10 cells [3]": {"test_system": "B16F10 cells", "experiment": "Long-term survival assay, B16F10 cells in CM from 3T3-L1 cells", "format": "cell-based, Murine", "description": "3T3-L1 cells were plated in 35-mm dishes and differentiated as described, along with vehicle or orlistat treatment (50 μM)."}, "[4]": {"test_system": "FASN, P-gp, Cav-1, pAkt, PCNA, and cyclin D1", "experiment": "Western blot of tumor lysates of B16F10-isografted mice", "format": "in vivo, C57BL/6J mice", "description": "Melanoma tumor samples or cells were washed three to five times with ice-cold PBS and lysed in ice-cold RIPA lysis buffer as described previously. Briefly, the samples were centrifuged at 12000 RPM for 40 min and clear supernatants were stored at −80 °C. Protein concentrations were determined by Coomassie Plus Protein Assay Reagent (Thermo Scientific, IL, USA). Equal amounts of protein samples (50–100 μg) were resolved on 8–10% SDS-polyacrylamide gel and then transferred onto PVDF membrane (Millipore, MA, USA). […] After washing, the membranes were incubated with HRP-conjugated secondary antibodies (1:2000) and blots were developed using luminescence detection reagents (Santa Cruz Biotechnology, CA, USA)."}, "B16F10 melanoma [5]": {"test_system": "B16F10 melanoma", "experiment": "B16F10 melanoma isograft in ND C57BL/6J mice: tumor growth and survival", "procedure": "Melanoma cells were injected and orlistat treatment was continued. Following tumor formation, all groups of mice were treated with vehicle (acidified water) or DTIC, and tumor volume was followed up in these mice throughout the study as mentioned above. […] At the end of the experiment, mice were sacrificed, tumors were excised, and the samples were immediately preserved at −80 °C until further use. Five mice from each group were followed up for survival studies as mentioned above."}, "[6]": {"conditions": "serum from orlistat-treated or diet-shifted obese mice, DTIC at 1415 μM"}},
  "note": "Entries after “also recorded” stand apart in the source; their conditions may differ.",
  "data": [
    {"compound": "CN(C)/N=N/c1[nH]cnc1C(N)=O", "note": "[DTIC, Dacarbazine]", "values": [
      {"measurement": "Survivability of tumor-bearing mice", "setting": "B16F10 melanoma [1]; HFD mice", "value": 60, "unit": "days"},
      {"measurement": "Survival of tumor-bearing mice", "setting": "B16F10 melanoma [1]; HFD mice", "value": "reduced"},
      {"measurement": "Survivability increase", "setting": "B16F10 melanoma [1]; tumor-bearing HFD mice under weight control by orlistat treatment or diet shifting, DTIC therapy", "value": 40, "unit": "%"},
      {"measurement": "Increase of sensitivity to DTIC", "setting": "B16F10 cells [2]; HFD serum, FASN, Cav-1 and P-gp simultaneously inhibited (cerulenin, methyl β-cyclodextrin, verapamil)", "value": "approximately 80%"},
      {"measurement": "Reduction of cell survival", "setting": "B16F10 cells [2]; [6]", "value": "approximately 70%"},
      {"measurement": "Increase of sensitivity to DTIC", "setting": "B16F1 cells; HFD serum, FASN, Cav-1 and P-gp simultaneously inhibited", "value": "approximately 80%"},
      {"measurement": "Reduction of cell survival", "setting": "B16F1 cells; [6]", "value": "~75", "unit": "%"},
      {"measurement": "Effect on survival", "setting": "B16F10 cells [3]; CM from differentiated ID adipocytes", "value": "did not remarkably affect"},
      {"measurement": "Improvement of sensitivity to DTIC", "setting": "B16F10 cells [3]; CM from differentiated adipocytes, simultaneous treatment with all three inhibitors (FASN, Cav-1, P-gp)", "value": "approximately 80%"},
      {"measurement": "Survival remaining", "setting": "B16F10 cells [3]; CM from orlistat-treated differentiating adipocytes, DTIC at 649 μM", "value": "approximately 30%"},
      {"measurement": "Level of P-gp in tumors", "setting": "[4]; HFD mice", "value": "further increased"},
      {"measurement": "Protein levels of cyclin D1 and PCNA in tumors", "setting": "[4]; HFD mice", "value": "increase"},
      {"measurement": "Cav-1 levels in tumors", "setting": "[4]; HFD mice treated with DTIC", "value": "elevated"},
      {"measurement": "FASN level in tumors", "setting": "[4]; HFD mice treated with DTIC", "value": "further increased"},
      {"measurement": "Level of P-gp in tumors", "setting": "[4]; ND mice", "value": "reduced"},
      {"measurement": "Protein levels of cyclin D1 and PCNA in tumors", "setting": "[4]; ND mice", "value": "reduced levels"},
      {"measurement": "FASN and Cav-1 level in tumors", "setting": "[4]; ND mice treated with DTIC", "value": "much lower"},
      {"measurement": "Survival of tumor-bearing mice", "setting": "B16F10 melanoma [5]", "value": "prolonged"},
      {"measurement": "Tumor progression (tumor volume and weight)", "setting": "B16F10 melanoma [5]; DTIC 80 mg/kg i.p. 5 days, orlistat 10 mg/kg oral alternate days", "value": "significantly reduced; also recorded: significantly decreased"}
    ]}
  ]
}
